From ChEMBL document CHEMBL4715905, “Solution Conformations Shed Light on PROTAC Cell Permeability” (ACS Med Chem Lett, 2021)
Converted amounts (≈) assume the structure as drawn.

Assays:
[1] = Solubility of compound in PBS buffer at pH 6.5; type: physicochemical
[2] = target: Mitogen-activated protein kinase 7 (Homo sapiens, UniProt Q13164); assay: Inhibition of recombinant human GST-tagged ERK5 (1 to 398 assessed as phosphorylated peptide substrate incubated for 60 mins by TR-FRET based biochemical assay
[3] = Lipophilicity, logD of compound at pH 7.5; type: physicochemical; settings: buffer

Chain of Mitogen-activated protein kinase 7 (Q13164 whole entry): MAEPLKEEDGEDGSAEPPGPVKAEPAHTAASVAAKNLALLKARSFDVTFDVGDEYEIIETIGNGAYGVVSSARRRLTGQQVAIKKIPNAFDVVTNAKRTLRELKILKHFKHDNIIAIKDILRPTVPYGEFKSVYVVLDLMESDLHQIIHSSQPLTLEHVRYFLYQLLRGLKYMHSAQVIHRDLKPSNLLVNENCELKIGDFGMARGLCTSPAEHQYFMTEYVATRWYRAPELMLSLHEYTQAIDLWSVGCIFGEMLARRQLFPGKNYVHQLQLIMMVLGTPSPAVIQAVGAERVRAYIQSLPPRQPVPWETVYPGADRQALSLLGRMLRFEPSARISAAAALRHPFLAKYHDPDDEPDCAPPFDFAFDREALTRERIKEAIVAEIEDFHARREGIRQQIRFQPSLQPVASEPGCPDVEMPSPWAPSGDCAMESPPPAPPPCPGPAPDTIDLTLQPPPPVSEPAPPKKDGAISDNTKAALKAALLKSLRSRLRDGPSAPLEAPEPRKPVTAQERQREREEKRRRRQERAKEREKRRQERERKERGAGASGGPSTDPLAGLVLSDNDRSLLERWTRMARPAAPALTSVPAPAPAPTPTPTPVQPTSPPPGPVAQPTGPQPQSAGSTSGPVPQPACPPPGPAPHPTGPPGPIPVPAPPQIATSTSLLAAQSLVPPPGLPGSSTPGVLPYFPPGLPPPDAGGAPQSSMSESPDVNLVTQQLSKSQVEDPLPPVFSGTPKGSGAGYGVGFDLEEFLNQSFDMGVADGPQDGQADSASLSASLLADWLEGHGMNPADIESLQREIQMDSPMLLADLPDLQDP

solubility [1]: 7 µg/mL (≈ 6.77 µM)
IC50 [2]: 1.23 µM
logD [3]: 2.68
SMILES: Cc1ncsc1-c1ccc(CNC(=O)[C@@H]2C[C@@H](O)CN2C(=O)[C@@H](NC(=O)COCCOCCNC(=O)COc2cnc3c(C4CCN(C(=O)c5ccc(OC(F)(F)F)cc5)CC4)ncnc3c2)C(C)(C)C)cc1
